Measured values reported in article PMC5007552, “The hVps34‐SGK3 pathway alleviates sustained PI3K/Akt inhibition by stimulating mTORC1 and tumour growth” (The EMBO Journal, 2016).
Where “and” joins values, the source holds several entries; their conditions need not be identical. Identical values can stand only once.

Test system: ZR-75-1 cells
Assay: NanoString human kinome mRNA quantification
Assay type: cell-based
Text: Human mRNAs were hybridised to NanoString human kinome and control code sets, then subjected to quantification using NanoString software. […] To permit data compaction, and simple kinome‐wide comparisons, the fold changes are log2 transformed. […] Cell pellets were resuspended at a concentration of ~6,500 cells/μl in RLT buffer (Qiagen). […] For total copy numbers, triplicate normalised count values were averaged, and to calculate fold induction, means were divided by triplicate mean values from matched DMSO controls. P‐values were calculated using unpaired t‐test (GraphPad Prism software) by employing treated and control count data for each kinase mRNA.

NC1(c2ccc(-c3nc4ccn5c(=O)[nH]nc5c4cc3-c3ccccc3)cc2)CCC1 [MK-2206]
MAP2K6 Normalised counts (single replicates) (MAP2K6 mRNA, replicates 1-3): 273.54 and 301.57
MAP2K7 Normalised counts Average (MAP2K7 mRNA, average of 3): 452.7
MAP2K7 Normalised counts (single replicates) (MAP2K7 mRNA, replicates 1-3): 481.41 and 429.05 and 447.64
MAP3K1 Normalised counts Average (MAP3K1 mRNA, average of 3): 914.477
MAP3K1 Normalised counts (single replicates) (MAP3K1 mRNA, replicates 1-3): 890.44 and 933.79 and 919.2
MAP3K2 Normalised counts Average (MAP3K2 mRNA, average of 3): 686.32
MAP3K2 Normalised counts (single replicates) (MAP3K2 mRNA, replicates 1-3): 635.93 and 734.85 and 688.18
MAP3K3 Normalised counts Average (MAP3K3 mRNA, average of 3): 686.967
MAP3K3 Normalised counts (single replicates) (MAP3K3 mRNA, replicates 1-3): 685.93 and 665.35 and 709.62
MAP3K4 Normalised counts Average (MAP3K4 mRNA, average of 3): 878.993
MAP3K4 Normalised counts (single replicates) (MAP3K4 mRNA, replicates 1-3): 874.08 and 929.44 and 833.46
MAP3K5 Normalised counts Average (MAP3K5 mRNA, average of 3): 52.5933
MAP3K5 Normalised counts (single replicates) (MAP3K5 mRNA, replicates 1-3): 46.02 and 55.49 and 56.27
MAP3K6 Normalised counts Average (MAP3K6 mRNA, average of 3): 449.24
MAP3K6 Normalised counts (single replicates) (MAP3K6 mRNA, replicates 1-3): 420.51 and 453.37 and 473.84
MAP3K7 Normalised counts Average (MAP3K7 mRNA, average of 3): 743.277
MAP3K7 Normalised counts (single replicates) (MAP3K7 mRNA, replicates 1-3): 716.83 and 700.97 and 812.03
MAP3K8 Normalised counts Average (MAP3K8 mRNA, average of 3): 26.4033
MAP3K8 Normalised counts (single replicates) (MAP3K8 mRNA, replicates 1-3): 26.93 and 28.56 and 23.72
MAP3K9 Normalised counts Average (MAP3K9 mRNA, average of 3): 379.6
MAP3K9 Normalised counts (single replicates) (MAP3K9 mRNA, replicates 1-3): 365.97 and 402.99 and 369.84
MAP3K10 Normalised counts Average (MAP3K10 mRNA, average of 3): 168.847
MAP3K10 Normalised counts (single replicates) (MAP3K10 mRNA, replicates 1-3): 162.36 and 182.33 and 161.85
MAP3K11 Normalised counts Average (MAP3K11 mRNA, average of 3): 121.413
MAP3K11 Normalised counts (single replicates) (MAP3K11 mRNA, replicates 1-3): 113.28 and 123.25 and 127.71
MAP3K12 Normalised counts Average (MAP3K12 mRNA, average of 3): 52.4667
MAP3K12 Normalised counts (single replicates) (MAP3K12 mRNA, replicates 1-3): 51.47 and 61.57 and 44.36
MAP3K13 Normalised counts Average (MAP3K13 mRNA, average of 3): 189.707
MAP3K13 Normalised counts (single replicates) (MAP3K13 mRNA, replicates 1-3): 181.45 and 198.83 and 188.84
MAP3K14 Normalised counts Average (MAP3K14 mRNA, average of 3): 43.9833
MAP3K14 Normalised counts (single replicates) (MAP3K14 mRNA, replicates 1-3): 37.84 and 44.2 and 49.91
MAP3K15 Normalised counts Average (MAP3K15 mRNA, average of 3): 13.0267
MAP3K15 Normalised counts (single replicates) (MAP3K15 mRNA, replicates 1-3): 12.38 and 17.27 and 9.43
MAP4K1 Normalised counts Average (MAP4K1 mRNA, average of 3): 25.6067
MAP4K1 Normalised counts (single replicates) (MAP4K1 mRNA, replicates 1-3): 20.57 and 28.56 and 27.69
MAP4K2 Normalised counts Average (MAP4K2 mRNA, average of 3): 517.167
MAP4K2 Normalised counts (single replicates) (MAP4K2 mRNA, replicates 1-3): 521.4 and 514.19 and 515.91
MAP4K3 Normalised counts Average (MAP4K3 mRNA, average of 3): 998.393
MAP4K3 Normalised counts (single replicates) (MAP4K3 mRNA, replicates 1-3): 947.71 and 1044.12 and 1003.35
MAP4K4 Normalised counts Average (MAP4K4 mRNA, average of 3): 871.587
MAP4K4 Normalised counts (single replicates) (MAP4K4 mRNA, replicates 1-3): 808.64 and 924.23 and 881.89
MAP4K5 Normalised counts Average (MAP4K5 mRNA, average of 3): 2400.42
MAP4K5 Normalised counts (single replicates) (MAP4K5 mRNA, replicates 1-3): 2332.97 and 2437.58 and 2430.72
MAPK1 Normalised counts Average (MAPK1 mRNA, average of 3): 3519.07
MAPK1 Normalised counts (single replicates) (MAPK1 mRNA, replicates 1-3): 3459.18 and 3429.68 and 3668.36
MAPK3 Normalised counts Average (MAPK3 mRNA, average of 3): 2954.55
MAPK3 Normalised counts (single replicates) (MAPK3 mRNA, replicates 1-3): 2922.89 and 2952.74 and 2988.02
MAPK4 Normalised counts Average (MAPK4 mRNA, average of 3): 4.88
MAPK4 Normalised counts (single replicates) (MAPK4 mRNA, replicates 1-3): 3.29 and 5.1 and 6.25
MAPK6 Normalised counts Average (MAPK6 mRNA, average of 3): 1788.65
MAPK6 Normalised counts (single replicates) (MAPK6 mRNA, replicates 1-3): 1729.42 and 1778.2 and 1858.34
MAPK7 Normalised counts Average (MAPK7 mRNA, average of 3): 144.45
MAPK7 Normalised counts (single replicates) (MAPK7 mRNA, replicates 1-3): 156 and 134.55 and 142.8
MAPK8 Normalised counts Average (MAPK8 mRNA, average of 3): 551.453
MAPK8 Normalised counts (single replicates) (MAPK8 mRNA, replicates 1-3): 558.67 and 556.75 and 538.94
MAPK9 Normalised counts Average (MAPK9 mRNA, average of 3): 3428.01
MAPK9 Normalised counts (single replicates) (MAPK9 mRNA, replicates 1-3): 3385.55 and 3472.25 and 3426.23
MAPK10 Normalised counts Average (MAPK10 mRNA, average of 3): 51.74
MAPK10 Normalised counts (single replicates) (MAPK10 mRNA, replicates 1-3): 66.92 and 32.03 and 56.27
MAPK11 Normalised counts Average (MAPK11 mRNA, average of 3): 204.103
MAPK11 Normalised counts (single replicates) (MAPK11 mRNA, replicates 1-3): 193.27 and 212.73 and 206.31
MAPK12 Normalised counts Average (MAPK12 mRNA, average of 3): 217.317
MAPK12 Normalised counts (single replicates) (MAPK12 mRNA, replicates 1-3): 225.99 and 210.13 and 215.83
MAPK13 Normalised counts Average (MAPK13 mRNA, average of 3): 1105.76
MAPK13 Normalised counts (single replicates) (MAPK13 mRNA, replicates 1-3): 1118.59 and 1094.51 and 1104.17
MAPK14 Normalised counts Average (MAPK14 mRNA, average of 3): 677.43
MAPK14 Normalised counts (single replicates) (MAPK14 mRNA, replicates 1-3): 691.38 and 666.22 and 674.69
MAPK15 Normalised counts Average (MAPK15 mRNA, average of 3): 105.53
MAPK15 Normalised counts (single replicates) (MAPK15 mRNA, replicates 1-3): 90.56 and 110.22 and 115.81
MAPKAPK2 Normalised counts Average (MAPKAPK2 mRNA, average of 3): 1630.94
MAPKAPK2 Normalised counts (single replicates) (MAPKAPK2 mRNA, replicates 1-3): 1646.7 and 1595.77 and 1650.35
MAPKAPK3 Normalised counts Average (MAPKAPK3 mRNA, average of 3): 413.777
MAPKAPK3 Normalised counts (single replicates) (MAPKAPK3 mRNA, replicates 1-3): 380.52 and 429.05 and 431.76
MAPKAPK5 Normalised counts Average (MAPKAPK5 mRNA, average of 3): 1446.88
MAPKAPK5 Normalised counts (single replicates) (MAPKAPK5 mRNA, replicates 1-3): 1508.54 and 1415.94 and 1416.16
MARK1 Normalised counts Average (MARK1 mRNA, average of 3): 415.69
MARK1 Normalised counts (single replicates) (MARK1 mRNA, replicates 1-3): 399.6 and 430.79 and 416.68
MARK2 Normalised counts Average (MARK2 mRNA, average of 3): 1522.43
MARK2 Normalised counts (single replicates) (MARK2 mRNA, replicates 1-3): 1510.36 and 1537.56 and 1519.36
MARK3 Normalised counts Average (MARK3 mRNA, average of 3): 1279.49
MARK3 Normalised counts (single replicates) (MARK3 mRNA, replicates 1-3): 1275.85 and 1283.02 and 1279.61
MARK4 Normalised counts Average (MARK4 mRNA, average of 3): 1238.46
MARK4 Normalised counts (single replicates) (MARK4 mRNA, replicates 1-3): 1216.76 and 1258.7 and 1239.92
MAST1 Normalised counts Average (MAST1 mRNA, average of 3): 64.11
MAST1 Normalised counts (single replicates) (MAST1 mRNA, replicates 1-3): 68.74 and 54.62 and 68.97
MAST2 Normalised counts Average (MAST2 mRNA, average of 3): 721.127
